In patent publication US20160009693A1, “HERBICIDAL COMPOUNDS” (SYNGENTA LIMITED, priority 2013, published 2016):

Legend:
Format in all cases: in vivo
Settings in all cases: applied at 1000 g/h, evaluated after 13 days
[1] = system: Echinochloa crus-galli (ECHCG); assay: Herbicidal glasshouse test, post-emergence, ECHCG
In short: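 In this post-emergence glasshouse test, barnyard grass (ECHCG) was cultivated for 8 days under controlled conditions (24/16° C. day/night, 14 hours light, 65% humidity). It was then sprayed with an aqueous solution of the technical compound in acetone / water (50:50) with 0.5% Tween 20. Plants were kept under the same conditions and watered twice daily. After 13 days, percentage damage was rated on a five point scale (5=80-100%; 1=0-19%).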

Solanum nigrum (SOLNI) [2] = assay: Herbicidal glasshouse test, pre-emergence, SOLNI
In short: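 This pre-emergence glasshouse herbicide test used Solanum nigrum sown in standard soil. One day after sowing, pots were sprayed with the compound in acetone/water (50:50) with 0.5% Tween 20. They were then grown at 24/16° C., with 14 hours light and 65% humidity, and watered twice daily. Percentage damage was scored after 13 days on a five point scale, where 5=80-100% and 1=0-19%.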

[3] = system: Alopecurus myosuroides (ALOMY); assay: Herbicidal glasshouse test, post-emergence, ALOMY
Solanum nigrum (SOLNI) [4] = assay: Herbicidal glasshouse test, post-emergence, SOLNI
[5] = system: Ipomoea hederacea (IPOHE); assay: Herbicidal glasshouse test, pre-emergence, IPOHE
Setaria faberi (SETFA) [6] = assay: Herbicidal glasshouse test, post-emergence, SETFA
In short: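 This post-emergence glasshouse herbicide test used potted Setaria faberi. Plants were cultivated for 8 days under controlled conditions (24/16° C. day/night, 14 hours light, 65% humidity) and then treated with an aqueous spray made from an acetone/water (50:50) solution containing 0.5% Tween 20. After 13 days of further growth with twice-daily watering, damage was rated on a five point scale (5=80-100%; 1=0-19%).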

[7] = system: Amaranthus retoflexus (AMARE); assay: Herbicidal glasshouse test, post-emergence, AMARE
In short: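 This post-emergence glasshouse test used AMARE plants raised in standard soil for 8 days under controlled conditions (24/16° C. day/night, 14 hours light, 65% humidity). Foliage was sprayed with formulated compound in acetone/water (50:50) containing 0.5% Tween 20. Plants were then watered twice daily, and after 13 days percentage damage was rated on a five point scale.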

[8] = system: Ipomoea hederacea (IPOHE); assay: Herbicidal glasshouse test, post-emergence, IPOHE
[9] = system: Echinochloa crus-galli (ECHCG); assay: Herbicidal glasshouse test, pre-emergence, ECHCG
In short: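 In this pre-emergence glasshouse test, ECHCG seeds sown in pots of standard soil were sprayed one day after sowing with the test material in acetone/water (50:50) containing 0.5% Tween 20. Plants were kept at 24/16° C., 14 hours light, 65% humidity, and watered twice daily. Percentage damage was rated after 13 days on a 1–5 scale.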

Setaria faberi (SETFA) [10] = assay: Herbicidal glasshouse test, pre-emergence, SETFA
[11] = system: Alopecurus myosuroides (ALOMY); assay: Herbicidal glasshouse test, pre-emergence, ALOMY
[12] = system: Amaranthus retoflexus (AMARE); assay: Herbicidal glasshouse test, pre-emergence, AMARE
In short: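 This pre-emergence glasshouse herbicide test used Amaranthus retoflexus sown in standard soil. After one day of cultivation, an aqueous spray made from the technical ingredient in 50:50 acetone/water with 0.5% Tween 20 was applied. Pots stayed at 24/16° C., 14 hours light, 65% humidity, with twice-daily watering. Damage was rated on a five point scale (1=0-19% up to 5=80-100%).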

SMILES	POST Application ECHCG, percentage damage (five point scale) [1]	PRE Application SOLNI, percentage damage (five point scale) (Solanum nigrum (SOLNI) [2])	POST Application ALOMY, percentage damage (five point scale) [3]	POST Application SOLNI, percentage damage (five point scale) (Solanum nigrum (SOLNI) [4])	PRE Application IPOHE, percentage damage (five point scale) [5]	POST Application SETFA, percentage damage (five point scale) (Setaria faberi (SETFA) [6])	POST Application AMARE, percentage damage (five point scale) [7]	POST Application IPOHE, percentage damage (five point scale) [8]	PRE Application ECHCG, percentage damage (five point scale) [9]	PRE Application SETFA, percentage damage (five point scale) (Setaria faberi (SETFA) [10])	PRE Application ALOMY, percentage damage (five point scale) [11]	PRE Application AMARE, percentage damage (five point scale) [12]
Cn1nnnc1NC(=O)c1nn(C)c(=O)n(-c2ccccc2F)c1=O [Compound 1.020]	5 (5=80-100%)	5 (5=80-100%)	5 (5=80-100%)	5 (5=80-100%)	5 (5=80-100%)	5 (5=80-100%)	5 (5=80-100%)	5 (5=80-100%)	5 (5=80-100%)	5 (5=80-100%)	5 (5=80-100%)	5 (5=80-100%)
Cn1nnnc1NC(=O)c1nn(C)c(=O)n(Cc2ccc(Cl)c(Cl)c2)c1=O [Compound 1.068]	4 (4=60-79%)	5 (5=80-100%)	3 (3=40-59%)	5 (5=80-100%)	1 (1=0-19%)	1 (1=0-19%)	5 (5=80-100%)	5 (5=80-100%)	2 (2=20-39%)	1 (1=0-19%)	3 (3=40-59%)	5 (5=80-100%)
Cn1nnnc1NC(=O)c1nn(C)c(=O)n(-c2ccc(F)c(Cl)c2)c1=O [Compound 1.008]	5 (5=80-100%)	5 (5=80-100%)	5 (5=80-100%)	5 (5=80-100%)	5 (5=80-100%)	5 (5=80-100%)	5 (5=80-100%)	5 (5=80-100%)	5 (5=80-100%)	5 (5=80-100%)	5 (5=80-100%)	5 (5=80-100%)
Cn1nnnc1NC(=O)c1nn(C)c(=O)n(Cc2cccc(F)c2)c1=O [Compound 1.063]	5 (5=80-100%)	5 (5=80-100%)	5 (5=80-100%)	5 (5=80-100%)	5 (5=80-100%)	4 (4=60-79%)	5 (5=80-100%)	5 (5=80-100%)	5 (5=80-100%)	4 (4=60-79%)	5 (5=80-100%)	5 (5=80-100%)
Cn1nnnc1NC(=O)c1nn(C)c(=O)n(Cc2cccc(F)c2F)c1=O [Compound 1.067]	5 (5=80-100%)	5 (5=80-100%)	5 (5=80-100%)	5 (5=80-100%)	5 (5=80-100%)	4 (4=60-79%)	5 (5=80-100%)	5 (5=80-100%)	5 (5=80-100%)	4 (4=60-79%)	5 (5=80-100%)	5 (5=80-100%)
Cn1nnnc1NC(=O)c1nn(C)c(=O)n(CC2CC2)c1=O [Compound 1.093]	5 (5=80-100%)	5 (5=80-100%)	5 (5=80-100%)	5 (5=80-100%)	5 (5=80-100%)	5 (5=80-100%)	5 (5=80-100%)	5 (5=80-100%)	5 (5=80-100%)	5 (5=80-100%)	5 (5=80-100%)	5 (5=80-100%)
Cn1nnnc1NC(=O)c1nn(C)c(=O)n(Cc2ccccc2C(F)(F)F)c1=O [Compound 1.062]	5 (5=80-100%)	5 (5=80-100%)	5 (5=80-100%)	5 (5=80-100%)	5 (5=80-100%)	5 (5=80-100%)	5 (5=80-100%)	5 (5=80-100%)	5 (5=80-100%)	5 (5=80-100%)	5 (5=80-100%)	5 (5=80-100%)
CCc1ccc(-n2c(=O)c(C(=O)Nc3nnnn3C)nn(C)c2=O)cc1 [Compound 1.006]	5 (5=80-100%)	5 (5=80-100%)	5 (5=80-100%)	5 (5=80-100%)	5 (5=80-100%)	5 (5=80-100%)	5 (5=80-100%)	5 (5=80-100%)	5 (5=80-100%)	5 (5=80-100%)	5 (5=80-100%)	5 (5=80-100%)
